Data on one compound can be found in patent publication US20170056351A1, “COMPOSITION FOR INDUCING TUMOR IMMUNITY” (UNIVERSITY OF OCCUPATIONAL AND ENVIRONMENTAL HEALTH, JAPAN, priority 2014, published 2017).

The subject of one data set is 9L gliosarcoma cells. Kind of data set: Accumulation of ALA-induced PpIX in rat subcutaneous tumor model (HPLC analysis and fluorescence observation). The format is in vivo.
Data set [1] deals with 9L cells. Nature of the data set: Intracellular level of 5-ALA-induced PpIX by flow cytometric analysis, 9L. Type of data set: cell-based, rat. Particulars: average±SE. On the procedure:
(§1) Two types of rat glioma cell lines (9L and C6) and human glioma cell lines (U251 and T98G) were used. Before use, 9L and T98G were cultured in RPMI-1640 at 37° C. for several days, whereas C6 and U251 were cultured in 10% FBS-added Dulbecco's modified Eagle's medium (DMEM) at 37° C. for several days. These cell lines were maintained at 37° C. in 5% CO2 in a humidified incubator. The cells were subcultured at an exponential growth phase thereof, using 0.05% trypsin solution containing 0.5 mM ethylenediamine tetraacetate. 70% confluent cells were used in the subsequent experiments. 5-ALA was dissolved in RPMI-1640 (9L and T98G), or in 10% FBS-added DMEM (C6 and U251), to a final concentration of 1 mM.
(§2) The cells were seeded on a 100-mm culture dish, and were then cultured. The cells were incubated in a complete medium containing 1 mM 5-ALA for 4 hours, and were then washed with PBS. The resulting cells were peeled from the bottom layer by a trypsin treatment, and were then recovered by centrifugation (400×g, 3 min, and 4° C.). Immediately after the recovery, the cells were re-suspended in cold PBS/FBS, and were then analyzed using a flow cytometer (EC800; Sony Biotechnology, Tokyo, Japan). Generally, 30,000 cells contained in each sample were evaluated. Using 488-nm argon ion laser, fluorescence was excited from intracellular PpIX, and the fluorescence was then detected using a 640/30 nm band-pass filter. In order to prevent photoactivation of 5-ALA-induced PpIX, all procedures were carried out in a dark room. The flow cytometric data were analyzed using FlowJo (Tree Star Inc., Ashland, Oreg., USA). The mean fluorescence intensity (MFI) of PpIX fluorescence in the 5-ALA-treated cells, with respect to that of 5-ALA-not-treated cells, was calculated for each cell line.
Background: Flow cytometry measures light scatter and fluorescence of single cells or particles in a stream.

For data set [2] the following is noted: living body; cited from earlier work.
Data set [3] relates to 9L cells. Nature of the data set: Intracellular localization of ROS 12 hours after ionizing radiation (DCFD, confocal laser scanning microscope), 9L. Particulars: pre-treatment with 1 mM 5-ALA 4 hours before 10 Gy, 12 hours after irradiation, vs no 5-ALA. Type of data set: cell-based, rat. On the procedure:
Intracellular ROS production was detected by our method using DCFD and a confocal laser scanning microscope (LMS5 Pascal; Carl Zeiss, Jena, Germany) (Yamamoto J, Ogura S, Tanaka T, et al: Radiosensitizing effect of 5-aminolevulinic acid-induced protoporphyrin IX in glioma cells in vitro. Oncol Rep 27: 1748-1752, 2012.). Briefly, the cells were seeded in a fresh medium containing 1 mM 5-ALA in a 35-mm glass-bottom culture dish (Asahi Techno Glass, Tokyo, Japan), and were then incubated at 37° C. for 4 hours in a dark room. Thereafter, the cells were washed with PBS, and were then exposed to an ionizing radiation of 10 Gy. Twelve hours after the ionizing irradiation, the cells were washed with PBS twice, and were then incubated together with 10 μM DCFD for 15 minutes. Thereafter, the cells were washed with PBS twice, and immediately after the washing, the resulting cells were observed. DCFD fluorescence (excitation: 488 nm; radiation: 505-530 nm band-pass filter) was imaged on a confocal laser scanning microscope. All procedures were carried out in a dark room.

Data set [4] relates to Iba1-positive macrophages in subcutaneously transplanted 9L gliosarcoma. Kind of data set: Pathologic examination of subcutaneous tumor, Iba1 staining of macrophages and microdensitometry. The format is in vivo, rat. The protocol: After completion of the immobilization, all of the tumor samples were cut at the center of tumor in the longitudinal direction. The obtained fragments were each stained with hematoxylin and eosin (HE), and were also stained with Iba1 or CD68 for detection of macrophages. Briefly, the sample was bathed in water for pre-treatment (40 minutes, 95° C.), and the deparaffinized portion was then washed with KN Buffer (KN-09002; Pathology Institute Corp, Toyama, Japan). Subsequently, the fragment was incubated with goat polyclonal anti-Iba1 (1:3000, ab107159, Abcam) or anti-CD68 antibody (1:100, MCA-341R, AbD) for 30 minutes, and were further washed with KN Buffer. Subsequently, regarding Iba1, the fragment was incubated with Simple Stain™ MAX-PO (G) (H1301; Nichirei Bioscience Inc. Japan) for 30 minutes. Regarding CD68, the fragment was incubated with Envision+Dual Link HRP-label/polymer reagent (Dako: K4061) for 30 minutes. The resultant was finally washed with KN Buffer, and was then treated with diaminobenzidine (DAB) for 10 minutes for color development. […]
Moreover, the procedures of the previous study (Prall F, Maletzki C, Linnebacher M: Microdensitometry of osteopontin as an immunohistochemical prognostic biomarker in colorectal carcinoma tissue microarrays: potential and limitations of the method in ‘biomarker pathology’. Histopathology 61: 823-32, 2012.) were partially modified, and using public domain software, Image J (Wayne Rasband, National Institute of Mental Health, Bethesda, Md.), microdensitometry was carried out regarding immunohistochemical quantitative evaluation of Iba1 on a digital photomicrograph. […] In order to quantify the color signals of immunohistochemical DAB of Iba1, the image data of all samples were transferred into Image J, and were then converted to 8-bit grayscale images. […] The present inventors have defined the mean gray value (MGV) of all of the tumor samples in a control group (n=5) as a representative value, and the relative intensities of MGVs in other groups to the aforementioned representative value were then calculated.

In another data set the test system is U251 cells. Kind of data set: Intracellular level of 5-ALA-induced PpIX by flow cytometric analysis, U251. The format is cell-based, human. The settings on record: average±SE. On the procedure:
as §1, §2

The test system of another data set is T98G cells. Nature of the data set: Intracellular level of 5-ALA-induced PpIX by flow cytometric analysis, T98G. Particulars: 1 mM 5-ALA for 4 hours, relative to 5-ALA-not-treated cells, average±SE. The format is cell-based, human. On the procedure:
Two types of rat glioma cell lines (9L and C6) and human glioma cell lines (U251 and T98G) were used. Before use, 9L and T98G were cultured in RPMI-1640 at 37° C. for several days, whereas C6 and U251 were cultured in 10% FBS-added Dulbecco's modified Eagle's medium (DMEM) at 37° C. for several days. These cell lines were maintained at 37° C. in 5% CO2 in a humidified incubator. The cells were subcultured at an exponential growth phase thereof, using 0.05% trypsin solution containing 0.5 mM ethylenediamine tetraacetate. 70% confluent cells were used in the subsequent experiments. […]
as §2, with “The cells were incubated in a complete medium containing 1 mM 5-ALA for 4 hours, and were then washed with PBS. The resulting cells were peeled from the bottom layer by a trypsin treatment, and were then recovered by centrifugation (400×g, 3 min, and 4° C.).” left out, “In order to prevent photoactivation of 5-ALA-induced PpIX, all procedures were carried out in a dark room.” left out

Where [5] appears, read: 1 mM 5-ALA for 4 hours, relative to 5-ALA-not-treated cells.
Where [6] appears, read: 4 hours after ionizing irradiation.
Setting [7] is: 12 hours after ionizing irradiation.
Where [8] appears, read: 24 hours after ionizing irradiation.

Procedure for 9L gliosarcoma cells: As experimental animals, inbred male Fischer 344 rats (8 week old) (SLC, Inc. (Hamamatsu, Japan)) were used and were inoculated with 9L gliosarcoma cells. […] In short, 9L gliosarcoma cells (1×10^6 cells) were transplanted into the skin on the dorsal side of each Fischer 344 rat, so as to produce a rat subcutaneous tumor model.
Specifically, after the transplanted tumor had grown to a size of 1 cm in diameter, 100 mg/kg body weight of ALA was injected into the caudal vein of each rat (i.v.). Three hours later, the rat was anesthetized, and a tumor portion, excluding a portion covering the dorsal skin, was excised from the rat. The tumor portion was immediately subjected to a freezing treatment using dry ice, and the resultant was then preserved at −80° C. in a dark place.
Specifically, a tumor sample (approximately 1 mm in diameter) was treated with 200 μl of 0.1 M NaOH, and it was then homogenized on ice, using Powermasher II (Assist, Tokyo, Japan). […]
For the elution, Solvent A was used for 5 minutes, then, linear gradient Solvent B (0% to 100%) was used for 25 minutes, and thereafter, Solvent B was used for 10 minutes. The flow rate for elution was maintained at constant, using a fluorospectro-photometer (excited at 404 nm, and detected at 624 nm). […]

In the case of `NCC(=O)CCC(=O)O` [ALA, 5-aminolevulinic acid], the “amount of PpIX in tumor induced by ALA (HPLC)” value in the data set with 9L gliosarcoma cells (3 hours after intravenous administration of ALA 100 mg/kg body weight, mean±SE) is given as 3.66±0.91 pmol/mg protein. Moreover, in the data set with 9L gliosarcoma cells (3 hours after intravenous administration of ALA, compared with control tumor without ALA), the “fluorescence of subcutaneous tumor under 410 nm light” value is given as “strong fluorescence”. For the same compound, the “relative MFI of PpIX fluorescence” value with 9L cells [1] (setting [5]) came to 21.5±0.12; in the data set on U251 cells (setting [5]), 37.6±0.12; with T98G cells it was 15.3±0.89. Further, the “relative MFI of PpIX fluorescence after ionizing irradiation” value with 9L cells [1] (setting [6]) came out at 15.2±0.15; in the data set on 9L cells [1] (setting [7]), 15.9±0.73; with 9L cells [1] (setting [8]), 13.4±2.43; in the data set on U251 cells (setting [6]) it was 41.6±0.20; in the data set on U251 cells (setting [7]), 44.2±3.67; in the data set with U251 cells (setting [8]), 51.1±3.76. Also, the “time until ALA is metabolized and discharged from the body” value in data set [2] is at most 48 h. Moreover, the “DCF fluorescence in the cytoplasm (confocal)” value with 9L cells [3] is listed as “apparently increased”. The “mean gray value (MGV) of Iba1, microdensitometry, versus other groups” value in data set [4] (ALA multiple-dose + ionizing radiation multiple-dose group, p<0.05 vs RT group, p<0.01 vs ALA group) is reported as “significantly higher”. In addition, the “Iba1-positive macrophages in subcutaneous tumor” value in data set [4] (ALA multiple-dose administration group, 16th day after treatment) was “mainly gathered to the surface of the subcutaneous tumor”. Moreover, the “gathering of Iba1-positive macrophages to surface and inside of subcutaneous tumor” value in data set [4] (ionizing radiation combined with ALA administration, 16th day after treatment) is given as “significantly observed”.
